Experiments:
[1] = test system: mouse T lymphocytes (splenic T-cells); assay: T-cell proliferation assay (ionomycin plus PMA induced, tritiated thymidine uptake); type: cell-based, mouse (C57Bl/6)
Experimental: The principle of this assay is to measure the proliferation of mouse T lumphocytes stimulated with the combination of ionomycin plus PMA.
Cells were pelleted by centrifugation at 1500 rpm for 8 minutes. Contaminating red cells were removed by treating the pellet with ammonium chloride lysing buffer (GIBCO) for 2 minutes at 4° C. Cold medium was added and cells were again centrifuged at 1500 rpm for 8 minutes. T lumphocytes were then isolated by separation of the cell suspension on nylon wool columns as follows: Nylon wool columns were prepared by packing approximately 4 grams of washed and dried nylon wool into 20 ml plastic syringes. The columns were sterilized by autoclaving at 250° F. for 30 minutes. Nylon wool columns were wetted with warm (37° C.) culture medium and rinsed with the same medium. Washed spleen cells resuspended in warm medium were slowly applied to the nylon wool. The columns were then incubated in an upright position at 37° C. for 1 hours. […]
The cell suspension was immediately distributed into 96 well flat-bottom microculture plates (Costar) at 200 μl/well. […] Radioactivity of filter discs corresponding to individual wells was measured by standard liquid scintillation counting method (Betacounter). Mean counts per minute of replicate wells were calculated and the results expressed as percent inhibition of tritiated thymidine uptake (proliferation) as follows: [formula]

[2] = test system: FK-506 immunosuppressive activity; assay: antagonist activity versus the FK-506 immunosuppressive activity by the T-cell proliferation assay; type: cell-based; settings: qualitative
[3] = reputed; vs cyclosporin; cited from earlier work

In the case of `CC[C@@H]1C=C2COC1(O)C[C@H](O)[C@@H](C)[C@@H](/C(C)=C/[C@@H]1CC[C@@H](O)[C@H](OC)C1)OC(=O)[C@@H]1CCCCN1C(=O)C(=O)[C@]1(O)O[C@H]([C@@H](OC)C[C@@H](C)C2)[C@@H](OC)C[C@H]1C` [Compound I], the “reversal of inhibition of T-cell proliferation by IL2” value ([1]; 50 units/ml recombinant IL2 added at initiation of culture) is reported as “reversed”, the “inhibition of T-cell activation” value ([1]; ionomycin + PMA, qualitative) is reported as “positive inhibition of T-cell activation” and the “antagonist activity versus FK-506 immunosuppressive activity” value [2] is reported as “antagonist pharmacological activity”.

For `C=CC[C@@H]1/C=C(\C)C[C@H](C)C[C@H](OC)[C@H]2O[C@@](O)(C(=O)C(=O)N3CCCC[C@H]3C(=O)O[C@H](/C(C)=C/[C@@H]3CC[C@@H](O)[C@H](OC)C3)[C@H](C)[C@@H](O)CC1=O)[C@H](C)C[C@@H]2OC` [FR900506], the “effectiveness relative to cyclosporin” value [3] is listed as 100 times.

From patent US5221625A, “Cyclcic FR-900520 microbial biotransformation agent” (Merck & Co., Inc., priority 1992, dated 1993)
